In US12662491B2 (Redona Therapeutics, Inc., priority 2020, dated 2026) one finds IC50 data, which are given here for 18 compounds.

One assay has as its target T1, Zcchc11 enzyme (Homo sapiens, UniProt Q5TAX3).
T1 construct: made in house; host or cells: HEK293 cells (Zcchc11); E. coli Rosetta II (LIN28A)
T1 sequence (Q5TAX3 212-1420): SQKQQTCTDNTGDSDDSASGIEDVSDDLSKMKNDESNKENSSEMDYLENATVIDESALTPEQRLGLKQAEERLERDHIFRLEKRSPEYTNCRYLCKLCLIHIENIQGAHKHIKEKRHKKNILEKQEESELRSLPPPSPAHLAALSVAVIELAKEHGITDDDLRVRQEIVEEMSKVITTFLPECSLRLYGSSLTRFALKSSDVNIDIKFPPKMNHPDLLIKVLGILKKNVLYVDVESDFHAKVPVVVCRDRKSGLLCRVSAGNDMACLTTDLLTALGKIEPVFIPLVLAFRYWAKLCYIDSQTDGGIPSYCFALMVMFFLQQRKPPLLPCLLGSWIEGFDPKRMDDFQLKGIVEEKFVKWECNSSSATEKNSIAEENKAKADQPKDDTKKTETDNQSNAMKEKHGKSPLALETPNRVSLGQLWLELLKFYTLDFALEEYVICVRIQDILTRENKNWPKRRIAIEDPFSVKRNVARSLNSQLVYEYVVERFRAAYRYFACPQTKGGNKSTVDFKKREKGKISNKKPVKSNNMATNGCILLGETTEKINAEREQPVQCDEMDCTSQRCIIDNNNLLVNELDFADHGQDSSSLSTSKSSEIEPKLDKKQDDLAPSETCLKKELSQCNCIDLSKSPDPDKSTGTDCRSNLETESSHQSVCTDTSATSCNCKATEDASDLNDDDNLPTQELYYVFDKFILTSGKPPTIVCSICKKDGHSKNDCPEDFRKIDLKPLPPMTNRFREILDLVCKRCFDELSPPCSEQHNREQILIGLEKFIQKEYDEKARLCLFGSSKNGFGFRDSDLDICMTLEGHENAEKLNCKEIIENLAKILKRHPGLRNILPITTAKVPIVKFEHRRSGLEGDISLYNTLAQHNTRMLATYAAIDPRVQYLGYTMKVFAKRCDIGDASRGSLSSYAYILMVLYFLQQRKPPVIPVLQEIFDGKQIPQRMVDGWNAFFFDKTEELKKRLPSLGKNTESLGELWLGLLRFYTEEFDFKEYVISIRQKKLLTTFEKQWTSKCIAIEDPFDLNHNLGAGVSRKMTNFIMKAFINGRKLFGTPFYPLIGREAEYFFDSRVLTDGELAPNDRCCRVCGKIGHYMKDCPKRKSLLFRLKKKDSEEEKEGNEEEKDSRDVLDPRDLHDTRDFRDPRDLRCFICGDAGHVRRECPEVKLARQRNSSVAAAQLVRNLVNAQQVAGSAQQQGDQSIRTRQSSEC
Put plainly: TUTase assay (Zcchc11 assay, Lin28a-dependent polyuridylation of pre-let-7). The assay is classed as biochemical. Particulars: LIN28A 10 nM, Zcchc11 0.2 nM, 5′-fluorescein pre-let-7 miRNA 2 nM, UTP 5 uM, room temperature, 30 minutes pre-incubation; read-out: Potency Lin28a-dep Z11 IC50. In outline:
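Potency is measured as inhibition of LIN28A-driven U-tail addition to 2 nM pre-let-7 by 0.2 nM HEK293-derived Zcchc11 fragment with 5 uM UTP at room temperature. Tail growth appears as fluorescein quenching by an annealing rhodamine-A20 probe.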
In the case of `COc1ccc(Cl)c(OCC2N(c3cc4c(cc3Cl)c(=O)c(C(=O)O)cn4-c3cc(N)cnn3)CCC2(C)C)n1` (stereo not drawn) [Example 67, 1-(5-Aminopyridazin-3-yl)-6-chloro-7-(2-(((3-chloro-6-methoxypyridin-2-yl)oxy)methyl)-3,3-dimethylpyrrolidin-1-yl)-4-oxo-1,4-dihydroquinoline-3-carboxylic acid], the IC50 was ≤ 1 µM.
On to `O=C(O)c1cn(-c2ccc3c(c2F)CCN3)c2cc(N3CCC[C@@H]3COc3ccccn3)c(F)cc2c1=O` [Example 32, (R)-6-fluoro-1-(4-fluoroindolin-5-yl)-4-oxo-7-(2-((pyridin-2-yloxy)methyl)pyrrolidin-1-yl)-1,4-dihydroquinoline-3-carboxylic acid], for which the IC50 is ≤ 1 µM.
Still for that read-out and setting: with `NC1CN(c2ccc(-n3cc(C(=O)O)c(=O)c4cc(Cl)c(N5CCC[C@@H]5COc5ncccc5Cl)cc43)cn2)C1` [Example 28, (R)-1-(6-(3-aminoazetidin-1-yl)pyridin-3-yl)-6-chloro-7-(2-(((3-chloropyridin-2-yl)oxy)methyl)pyrrolidin-1-yl)-4-oxo-1,4-dihydroquinoline-3-carboxylic acid] the figure was ≤ 1 µM.

The assay is the same for the next values; noted with them: Lin28a-dependent Zcchc11 (Z11) TUTase activity; read-out: Potency Lin28a-dep Z11 IC50.
Take `CN(C)C1CN(c2ccc(-n3cc(C(=O)O)c(=O)c4cc(Cl)c(N5C6CC6C[C@@H]5COc5nc(OC6CC6)ccc5Cl)cc43)cn2)C1` (stereo partly drawn) [Compound 271, 6-chloro-7-((3R)-3-(((3-chloro-6-cycloprop-oxypyridin-2-yl)oxy)methyl)-2-azabicyclo [3.1.0]hexan-2-yl)-1-(6-(3-(dimethyl-amino)azetidin-1-yl)pyridin-3-yl)-4-oxo-1,4-dihydro-quinoline-3-carboxylic acid]: the IC50 is ≤ 1 µM.
Same read-out and setting: with `CN(C)C1CN(c2cc(Cl)c(-n3cc(C(=O)O)c(=O)c4cc(Cl)c(N5CCC[C@@H]5COc5ncccc5Cl)cc43)cn2)C1` [Compound 253, 6-chloro-1-[4-chloro-6-[3-(dimethyl-amino)azetidin-1-yl]pyridin-3-yl]-7-[(2R)-2-[[(3-chloropyridin-2-yl)oxy]methyl]pyrrolidin-1-yl]-4-oxoquinoline-3-carboxylic acid] the figure was ≤ 1 µM; with `CN(C)C1CN(c2ccc(-n3cc(C(=O)O)c(=O)c4cc(Cl)c(N5CCC[C@@H]5COc5ncccc5Cl)cc43)cn2)C1` [Compound 318, 6-Chloro-7-[(2R)-2-[[(3-chloropyridin-2-yl)oxy]methyl]pyrrolidin-1-yl]-1-[6-[3-(dimethyl-amino)azetidin-1-yl]pyridin-3-yl]-4-oxoquinoline-3-carboxylic acid], ≤ 1 µM.
Still for that read-out and setting: with `CN(C)c1ccc(Cl)c(OC[C@H]2CCCN2c2cc3c(cc2Cl)c(=O)c(C(=O)O)cn3-c2ccc(N3CC(N(C)C)C3)nc2)n1` [Compound 350, (R)-6-chloro-7-(2-(((3-chloro-6-(dimethyl-amino)pyridin-2-yl)oxy)methyl)pyrrolidin-1-yl)-1-(6-(3-(dimethyl-amino)azetidin-1-yl)pyridin-3-yl)-4-oxo-1,4-dihydro-quinoline-3-carboxylic acid] the figure was ≤ 1 µM.
The same measure, in the same setting: in the case of `COCCN(C)C1CN(c2ccc(-n3cc(C(=O)O)c(=O)c4cc(F)c(N5CC[C@H](C)[C@@H]5COc5ncccc5Cl)cc43)cn2)C1` (racemic) [Compound 262, rac-7-((2R,3S)-2-(((3-chloropyridin-2-yl)oxy)methyl)-3-methyl-pyrrolidin-1-yl)-6-fluoro-1-(6-(3-((2-methoxy-ethyl)(methyl)amino)azetidin-1-yl)pyridin-3-yl)-4-oxo-1,4-dihydro-quinoline-3-carboxylic acid] it was ≤ 1 µM.
Take `O=C(O)c1cn(C2CC2)c2cc(N3CCC[C@@H]3COc3ccccn3)c(F)cc2c1=O` [Compound 87, (R)-1-cyclopropyl-6-fluoro-4-oxo-7-(2-((pyridin-2-yloxy)methyl)pyrrolidin-1-yl)-1,4-dihydro-quinoline-3-carboxylic acid]: the IC50 lay in the range of 1 to 10 µM.
In the case of `CC(C)[C@H]1COC(=O)N1C[C@H]1CCCN1c1cc2c(cc1Cl)c(=O)c(C(=O)O)cn2C1(C)CC1` [Compound 140, 6-chloro-7-((R)-2-(((S)-4-isopropyl-2-oxooxazolidin-3-yl)methyl)pyrrolidin-1-yl)-1-(1-methylcyclo-propyl)-4-oxo-1,4-dihydro-quinoline-3-carboxylic acid], the half-maximal inhibitory concentration (IC50) was > 50 µM.
For the compound `O=C(O)c1cn(-c2cnc(OCCO)cn2)c2cc(N3CCC[C@@H]3COc3ncccc3Cl)c(Cl)cc2c1=O` [Compound 238, 6-chloro-7-[(2R)-2-[[(3-chloropyridin-2-yl)oxy]methyl]pyrrolidin-1-yl]-1-[5-(2-hydroxy-ethoxy)pyrazin-2-yl]-4-oxoquinoline-3-carboxylic acid], the IC50 was ≤ 1 µM.

Staying with this assay, now noted: Lin28a-dependent Zcchc11 (Z11) TUTase assay; read-out: Potency Lin28a-dep Z11 IC50.
Take `Nc1ccc(-n2cc(C(=O)O)c(=O)c3cc(Cl)c(N4CCC[C@@H]4COc4ncccc4Cl)cc32)c(F)n1` [Example 518, (R)-1-(6-amino-2-fluoropyridin-3-yl)-6-chloro-7-(2-(((3-chloropyridin-2-yl)oxy)methyl)pyrrolidin-1-yl)-4-oxo-1,4-dihydroquinoline-3-carboxylic acid]: the IC50 is ≤ 1 µM.
The same measure, in the same setting: in the case of `COc1ccc(-n2cc(C(=O)O)c(=O)c3cc(F)c(N4CCC[C@@H]4COc4ccccn4)cc32)cc1` [Example 401, (R)-6-fluoro-1-(4-methoxyphenyl)-4-oxo-7-(2-((pyridin-2-yloxy)methyl)pyrrolidin-1-yl)-1,4-dihydroquinoline-3-carboxylic acid] it was ≤ 1 µM.
`O=C(O)c1cn(-c2ccc(N3CCCCC3)nc2)c2cc(N3CCC[C@@H]3COc3ncccc3Cl)c(Cl)cc2c1=O` [Example 430, (R)-6-chloro-7-(2-(((3-chloropyridin-2-yl)oxy)methyl)pyrrolidin-1-yl)-4-oxo-1-(6-(piperidin-1-yl)pyridin-3-yl)-1,4-dihydroquinoline-3-carboxylic acid]: the IC50 was ≤ 1 µM.
The same measure, in the same setting: with `O=C(O)c1cn(-c2cnc(CO)cn2)c2cc(N3CCC[C@@H]3COc3ncccc3Cl)c(Cl)cc2c1=O` [Example 411, (R)-6-chloro-7-(2-(((3-chloropyridin-2-yl)oxy)methyl)pyrrolidin-1-yl)-1-(5-(hydroxy-methyl)pyrazin-2-yl)-4-oxo-1,4-dihydroquinoline-3-carboxylic acid] the figure was ≤ 1 µM.
Still for that read-out and setting: with `CN(C)C1CN(c2ccc(-n3cc(C(=O)O)c(=O)c4cc(Cl)c(N5C6CC6C[C@@H]5COc5ncccc5Cl)cc43)cn2)C1` (stereo partly drawn) [Example 628, 6-chloro-7-((3R)-3-(((3-chloropyridin-2-yl)oxy)methyl)-2-azabicyclo[3.1.0]hexan-2-yl)-1-(6-(3-(dimethylamino)azetidin-1-yl)pyridin-3-yl)-4-oxo-1,4-dihydroquinoline-3-carboxylic acid] the figure was ≤ 1 µM; with `O=C(O)c1cn(Cc2ccccc2)c2cc(N3CCC[C@@H]3COc3ncccc3Cl)c(Cl)cc2c1=O` [Example 556, (R)-1-benzyl-6-chloro-7-(2-(((3-chloropyridin-2-yl)oxy)methyl)pyrrolidin-1-yl)-4-oxo-1,4-dihydroquinoline-3-carboxylic acid], 1 to 10 µM; with `Cc1cc2c(=O)c(C(=O)O)cn(-c3ccc(N4CC(N(C)C)C4)nc3)c2cc1N1CCC[C@@H]1COc1ncccc1Cl` [Example 533, (R)-7-(2-(((3-chloropyridin-2-yl)oxy)methyl)pyrrolidin-1-yl)-1-(6-(3-(dimethylamino)azetidin-1-yl)pyridin-3-yl)-6-methyl-4-oxo-1,4-dihydroquinoline-3-carboxylic acid], ≤ 1 µM.

One may read the IC50 as the concentration needed to halve the response being measured.
